In PubChem BioAssay (NCI):
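Briefly, cells in 96-well plates were exposed to five compound concentrations for 48 h, and endpoints were estimated by linear interpolation. GI50 is the concentration that inhibits growth by half. The concentration for full growth arrest is given as TGI.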

How the values were obtained:
Assay in all cases: NCI anticancer screen, dose series, 48 h
[1] = tested on: SNB-75 CNS
[2] = tested on: M14 melanoma
[3] = tested on: KM12 colon
[4] = tested on: SR leukemia
[5] = tested on: MCF7 breast
[6] = tested on: PC-3 prostate
[7] = tested on: SK-MEL-28 melanoma
[8] = tested on: OVCAR-4 ovarian
[9] = tested on: NCI-H460 lung
[10] = tested on: OVCAR-8 ovarian
[11] = tested on: MOLT-4 leukemia
[12] = tested on: ACHN renal
[13] = tested on: T-47D breast
[14] = tested on: HT29 colon
[15] = tested on: NCI/ADR-RES ovarian
[16] = tested on: EKVX NSCLC
[17] = tested on: HCC-2998 colon
[18] = tested on: HS 578T breast
[19] = tested on: BT-549 breast
[20] = tested on: LOX IMVI melanoma
[21] = tested on: UACC-62 melanoma
[22] = tested on: SK-MEL-5 melanoma
[23] = tested on: OVCAR-5 ovarian
[24] = tested on: SN12C renal
[25] = tested on: NCI-H23 lung
[26] = tested on: UACC-257 melanoma
[27] = tested on: CCRF-CEM leukemia
[28] = tested on: A498 renal
[29] = tested on: HOP-62 NSCLC
[30] = tested on: CAKI-1 renal
[31] = tested on: A549 NSCLC
[32] = tested on: SK-OV-3 ovarian
[33] = tested on: SK-MEL-2 melanoma
[34] = tested on: UO-31 renal
[35] = tested on: OVCAR-3 ovarian
[36] = tested on: MDA-MB-435
[37] = tested on: SF-295 CNS
[38] = tested on: COLO 205 colon
[39] = tested on: SF-539 CNS
[40] = tested on: K-562 leukemia
[41] = tested on: TK-10 renal
[42] = tested on: NCI-H522 lung
[43] = tested on: MDA-MB-231 breast
[44] = tested on: U251 CNS
[45] = tested on: IGROV1 ovarian
[46] = tested on: DU-145 prostate
[47] = tested on: HL-60(TB) leukemia
[48] = tested on: RXF 393 renal
[49] = tested on: NCI-H226 lung
[50] = tested on: 786-0 renal
[51] = tested on: MALME-3M melanoma
[52] = tested on: HCT-116 colon
[53] = tested on: HOP-92 NSCLC
[54] = tested on: SF-268 CNS
[55] = tested on: RPMI-8226 leukemia
[56] = tested on: SNB-19 CNS
[57] = tested on: SW-620 colon
[58] = tested on: HCT-15 colon

Cc1cc(-c2ccc(C3C(C#N)=C(N)Oc4c3c(=O)oc3ccccc43)cc2)cnc1F (stereo unspecified)
GI50 [1]: 22.4 µM | TGI [1]: > 100 µM | GI50 [2]: > 100 µM | TGI [2]: > 100 µM | GI50 [3]: > 100 µM | TGI [3]: > 100 µM | GI50 [4]: 33.6 µM | TGI [4]: > 100 µM | GI50 [5]: 48.9 µM | TGI [5]: > 100 µM | GI50 [6]: 40.2 µM | TGI [6]: > 100 µM | GI50 [7]: > 100 µM | TGI [7]: > 100 µM | GI50 [8]: 39.3 µM | TGI [8]: > 100 µM | GI50 [9]: > 100 µM | TGI [9]: > 100 µM | GI50 [10]: > 100 µM | TGI [10]: > 100 µM | GI50 [11]: 27.8 µM | TGI [11]: > 100 µM | GI50 [12]: 55.9 µM | TGI [12]: > 100 µM | GI50 [13]: 29.5 µM | TGI [13]: > 100 µM | GI50 [14]: 43.4 µM | TGI [14]: > 100 µM | GI50 [15]: 68.7 µM | TGI [15]: > 100 µM | GI50 [16]: 71.3 µM | TGI [16]: > 100 µM | GI50 [17]: 89 µM | TGI [17]: > 100 µM | GI50 [18]: 67.8 µM | TGI [18]: > 100 µM | GI50 [19]: 23.9 µM | TGI [19]: > 100 µM | GI50 [20]: 44.4 µM | TGI [20]: > 100 µM | GI50 [21]: 43.8 µM | TGI [21]: > 100 µM | GI50 [22]: 81 µM | TGI [22]: > 100 µM | GI50 [23]: 85.9 µM | TGI [23]: > 100 µM | GI50 [24]: 81.2 µM | TGI [24]: > 100 µM | GI50 [25]: 38.7 µM | TGI [25]: > 100 µM | GI50 [26]: > 100 µM | TGI [26]: > 100 µM | GI50 [27]: 0.535 µM | TGI [27]: > 100 µM | GI50 [28]: > 100 µM | TGI [28]: > 100 µM | GI50 [29]: 88.5 µM | TGI [29]: > 100 µM | GI50 [30]: 41 µM | TGI [30]: > 100 µM | GI50 [31]: > 100 µM | TGI [31]: > 100 µM | GI50 [32]: 59.8 µM | TGI [32]: > 100 µM | GI50 [33]: 35.3 µM | TGI [33]: > 100 µM | GI50 [34]: 26.9 µM | TGI [34]: > 100 µM | GI50 [35]: 33.9 µM | TGI [35]: > 100 µM | GI50 [36]: > 100 µM | TGI [36]: > 100 µM | GI50 [37]: 88 µM | TGI [37]: > 100 µM | GI50 [38]: > 100 µM | TGI [38]: > 100 µM | GI50 [39]: 46 µM | TGI [39]: > 100 µM | GI50 [40]: 35 µM | TGI [40]: > 100 µM | GI50 [41]: 39.3 µM | TGI [41]: > 100 µM | GI50 [42]: 22.5 µM | TGI [42]: > 100 µM | GI50 [43]: > 100 µM | TGI [43]: > 100 µM | GI50 [44]: > 100 µM | TGI [44]: > 100 µM | GI50 [45]: > 100 µM | TGI [45]: > 100 µM | GI50 [46]: 49 µM | TGI [46]: > 100 µM | GI50 [47]: 43.4 µM | TGI [47]: > 100 µM | GI50 [48]: 12.8 µM | TGI [48]: 77.3 µM | GI50 [49]: 34.2 µM | TGI [49]: > 100 µM | GI50 [50]: 50.8 µM | TGI [50]: > 100 µM | GI50 [51]: > 100 µM | TGI [51]: > 100 µM | GI50 [52]: 29.4 µM | TGI [52]: > 100 µM | GI50 [53]: 1.63 µM | TGI [53]: 74.1 µM | GI50 [54]: 64.9 µM | TGI [54]: > 100 µM | GI50 [55]: 38.4 µM | TGI [55]: > 100 µM | GI50 [56]: > 100 µM | TGI [56]: > 100 µM | GI50 [57]: 85.3 µM | TGI [57]: > 100 µM | GI50 [58]: 42.3 µM | TGI [58]: > 100 µM
